Results: patent US4430335A (priority 1983, dated 1984)

Test system: mice
Set-up: species or system mice (male, CD-1)
Details: mouse, in vivo

## CCC(=O)O[C@](Cc1ccccc1)(c1ccccc1)[C@H](C)CN(C)C [propoxyphine]
  Dose Subcutaneously (sc) [*= ED50 ], 50 % Inhibition of phenylquinone writhing: 3.4
